{"source": "patent US9963518B2", "about": "“Cyclic oligosaccharides for use in the treatment and prevention of bacterial infection” (priority 2011, dated 2018)", "key": {"WT Wza": {"biological_target": "WT Wza (Escherichia coli, UniProt Q9X4B7)", "assay": "Single-channel electrical recording, blockers against wt-Wza in planar lipid bilayers", "type": "binding, E. coli", "conditions": "2M KCl, 5 mM HEPES, 100 μM EDTA, 200 μM DTT, pH 7.5", "description": "The Wt Wza transporter was tested in single-channel recording, in accordance with the procedures of Naismith (Nature 2006, 444, 226-229) for its ability to form pores in planar lipid bilayers. Sequential insertions of channels in a single orientation were used to measure the conductance of a single channel because more than one channel could insert simultaneously during the first introduction, especially when protein molecules have not properly diffused yet. Repetition of experiments helped to verify conductance of a single channel. […] After collection of 37 insertions of wt Wza channel, the current of a single channel of wt Wza in 2 M KCl buffer was determined to be 1.89±0.01 pA (n=37) on average, corresponding to 18.9±0.1 pS (n=37) in conductance.\n(§1) Thirteen commercial cyclodextrins (CDs) were tested for their ability to block WT-Wza and the mutant Y110G/K375C (Table 1) including, neutral, negatively charged or positively charged cyclodextrins. Testing was carried out using electrical channel recording in high salt buffer (2M KCl, 5 mM HEPES, 100 μM EDTA, 200 μM DTT) at pH 7.5."}, "mutant Wza Y110G/Y373C": {"biological_target": "mutant Wza Y110G/Y373C (Escherichia coli, UniProt Q9X4B7, Y110G/Y373C)", "assay": "Single-channel electrical recording, mutant Wza Y110G/Y373C", "type": "binding, E. coli", "conditions": "2M KCl buffer pH 7.5, +3 mV, n = 3, read-out: Dissociation constant (Kd) with mutant Wza pore"}, "[1]": {"system": "K30 polysaccharide transport through Wza", "assay": "Inhibition of K30 polysaccharide transport through Wza, phenol extraction and carbohydrate staining", "type": "cell-based, E. coli strain E69", "description": "The inhibitory effect of am8γCD, am7βCD and am6αCD were tested on live bacteria (E. coli strain E69) with K30 capsular polysaccharide (CPS) and Wza as its transporter. Isolation and staining of the polysaccharides was used. Phenol extraction was carried out in accordance with Orskov (Eur. J. Biochem.; 1980, Stirm, J. Bacteriol. 1967) to isolate the capsular polysaccharide (CPS) and lipopolysaccharide (LPS), followed by carbohydrate staining Pro-Q Emerald 300 glycoprotein stain kit (Molecular Probes) was used for staining of both the CPS and LPS. The staining time, loading volume, oxidation time and washing time after staining were optimised and the following conditions used in the assay:\nLoading volume: 3 μL of the stock aqueous polysaccharide solution (see below), mixed with 3 μL of the Laemmli sample buffer (1 mL, Bio-Rad) mixed with 2-mercaptoethanol (950 microliter:50 microliter) before use;\nOxidation time: 30 minutes\nFurther details of the microbiology and the staining procedures used are as follows: The strains were grown in the absence of or the presence of various concentrations of am8γCD overnight in M9 minimal medium until OD reached ˜0.5. Cells were collected by centrifugation of the culture at 2583×g for 20 minutes at 4° C. In the phenol extraction, volume of phenol/buffer (20 mM Tris.-HCl, 2 mM MgCl2, 20 mM NaCl, pH 8.0) to each tube with a cell pellet is calculated as OD*667 μL. […] By doing this, the cell concentration in each sample was identical so that the changes in CPS and LPS quantity of each cell on average could be compared quantitatively.\nDetailed measurement of the inhibitory effect of am8γCD towards K30 polysaccharide translocation was then performed. […] The gel was stained to generate fluorescence signals that correspond to the sugar quantity. […]\nThe fluorescent intensities of the gels were measured by using the Bio-Rad Universal Hood II. […] The fluorescence intensity of each lane was processed with the Plot Lane function after illumination of the gel with UV light at 302 nm and fluorescent data collection emissions going through an Amber Filter (548-630 nm)."}, "Wza Y110G/K375C": {"biological_target": "Wza Y110G/K375C (Escherichia coli, UniProt Q9X4B7, K375C/Y110G)", "assay": "Single-channel electrical recording, blockers against mutant Wza Y110G/K375C", "type": "binding, E. coli", "description": "The Wza pore was opened by replacing the tyrosines at position 110 that line the narrowest region of the lumen with glycine. To confirm that the currents observed indeed arose from the mutant pore, a cysteine was introduced in the α-helix barrel (Y110G/K375C) and would therefore yield a characteristic reversible blockade when derivatized with a suitable thiol-specific reagent.\nThe unitary conductance of the Y110G/K375C pore was determined as for wt-Wza, by measuring stepwise-insertion using the same technique referenced above. The mean open current of Y110G/K375C was determined to be +85±14.1 pA (+50 mV, n=31), corresponding to 1.70±0.28 nS (+50 mV, n=31) in conductance.\nas §1"}}, "note": "Where “and” joins values, the source holds several entries; their conditions need not be identical. Equal entries are not always repeated."}
{"smiles": "NC[C@H]1O[C@@H]2O[C@H]3[C@H](O)[C@@H](O)[C@@H](O[C@H]4[C@H](O)[C@@H](O)[C@@H](O[C@H]5[C@H](O)[C@@H](O)[C@@H](O[C@H]6[C@H](O)[C@@H](O)[C@@H](O[C@H]7[C@H](O)[C@@H](O)[C@@H](O[C@H]8[C@H](O)[C@@H](O)[C@@H](O[C@H]9[C@H](O)[C@@H](O)[C@@H](O[C@H]1[C@H](O)[C@H]2O)O[C@@H]9CN)O[C@@H]8CN)O[C@@H]7CN)O[C@@H]6CN)O[C@@H]5CN)O[C@@H]4CN)O[C@@H]3CN", "note": "[No. 12, Octacis (6-amino-6-deoxy)-γ-cyclodextrin]", "values": [{"measurement": "Interaction with WT Wza", "setting": "WT Wza", "value": "not observed"}, {"measurement": "Kd", "setting": "mutant Wza Y110G/Y373C", "value": "570 ± 520", "unit": "µM"}, {"measurement": "Inhibition of K30 polysaccharide transport compared with am7βCD and am6αCD", "setting": "[1]; 1 mM, E. coli strain E69, staining assay", "value": "much stronger"}, {"measurement": "LPS fluorescent intensity at saturation", "setting": "[1]; E. coli strain E69, increasing am8γCD", "value": "around 2 times that of the control"}, {"measurement": "IC50", "setting": "[1]; Escherichia coli, read-out: IC50 from concentration dependence of the CPS band intensity", "value": "51.2 ± 1", "unit": "µM"}, {"measurement": "Kd", "setting": "Wza Y110G/K375C; Kd, interaction with mutant Wza, Y110G/K375C, +3 mV, n = 3, 2M KCl buffer pH 7.5", "value": "12.3 µM and 12 µM"}, {"measurement": "Interaction with mutant Wza", "setting": "Wza Y110G/K375C; Y110G/K375C, 2M KCl, 5 mM HEPES, 100 μM EDTA, 200 μM DTT, pH 7.5", "value": "not observed^c"}, {"measurement": "Binding strength relative to am7βCD", "setting": "Wza Y110G/K375C; at different voltages", "value": "≥ 10", "unit": "times"}]}
